Source: US20240287089A1, “Preparation and Uses of 7-Azaindenoisoquinolines” (Purdue Research Foundation, priority 0001, published 2024)
Like-named read-outs stand apart in the source and are kept apart here.

Key:
[1] = dogs, same time points; cited from earlier work
[2] = system: DU-145 (Prostate); settings: Prostate DU-145; reference 20; read-out: Cytotoxicity GI50; cited from earlier work
[3] = system: MCF7 (Breast); settings: reference 20, read-out: Cytotoxicity GI50; cited from earlier work
[4] = system: HCT-116 (Colon); settings: Colon HCT-116; reference 20; read-out: Cytotoxicity GI50; cited from earlier work
[5] = system: SF-539 (CNS); settings: CNS SF-539; reference 20; read-out: Cytotoxicity GI50; cited from earlier work
[6] = system: NCI-60 cancer cell lines; settings: NCI-60 panel; reference 20; read-out: MGM (average GI50 across NCI-60 panel); cited from earlier work
[7] = system: UACC-62 (Melanoma); settings: Melanoma UACC-62; reference 20; read-out: Cytotoxicity GI50; cited from earlier work
[8] = system: SN12C (Renal); settings: reference 20, read-out: Cytotoxicity GI50; cited from earlier work
[9] = system: MOLT-4 human leukemia cells; assay: MOLT-4 xenograft in female NOD SCID mice; assay type: in vivo; settings: 20 mg/kg IV, 24 days after tumor inoculation
Excerpt: (§1) Xenograft Studies. […] JQ1 was employed as a positive control.

[10] = system: RD-ES human sarcoma tumor cells; assay: RD-ES xenograft in female NOD SCID mice; assay type: in vivo; settings: 20 mg/kg IV
Procedure: as §1
Similar studies were performed after inoculation of female NOD SCID mice with RD-ES human sarcoma tumor cells (FIGS. 16-19). The tumors grew much more rapidly and treatment was started on day 8 after tumor inoculation, with measurements of body weights and tumor sizes being made on days 8, 12, 15, 19, and 22 after tumor inoculation. […] The average RD-ES tumor sizes were much larger than observed with MOLT-4 (2327±285 vs. 546±59 mm^3).

[11] = male, mouse, microsomes, 1 μM
[12] = system: RS4;11 human leukemia cells; assay: RS4;11 xenograft in female NOD SCID mice; assay type: in vivo
Procedure: as §1
The compounds were also evaluated in an RS4;11 human leukemia xenograft model (FIGS. 20 and 21). Treatment was started 12 days after tumor inoculation, with drugs being administered on days 1-5 and 11-15 after the start of treatment. Animal weights and tumor volumes were determined at 12, 15, 19, 22, and 25 days after tumor inoculation.

[13] = mouse, 1 μM
Procedure: Analysis of Plasma Protein Binding and Stability in Human and Mouse Blood Plasma by Equilibrium Dialysis. Frozen plasma (stored at −80° C.) was thawed immediately in a 37° C. water bath. The working solutions of test compound and control compound were prepared in DMSO at 200 μM concentration, and the working solutions were spiked into plasma. The final concentration of compound was 1 μM. The final concentration of DMSO was 0.5%. Ketoconazole was used as positive control in the assay. The dialysis membranes were soaked in ultrapure water for 60 min to separate strips, then in 20% ethanol for 20 min, and then finally in dialysis buffer for 20 min. For equilibrium dialysis, each cell contained plasma sample (150 μL) and was dialyzed against an equal volume of dialysis buffer (PBS). The assay was performed in duplicate. The dialysis plate was sealed and incubated at 37° C. with 5% CO2 at 100 rpm for 6 h. At the end of incubation, samples (50 μL) from both buffer and plasma chambers were transferred to wells of a 96-well plate. Plasma (50 μL) was added to each buffer sample and an equal volume of PBS was added to the collected plasma sample. […] The concentrations of test compounds in the buffer and plasma chambers were determined from peak area ratios.

[14] = Pharmacokinetics IV and PO in male CD1 mice
[15] = in vivo, iv, 20 mg/kg
Procedure: Brain Penetration Studies. […] The concentrations were determined by LC-MS/MS with direct measurement of the plasma samples. The brain tissue was homogenized with water using a 3:1 ratio of water (mL) to brain (g) before determination of the concentrations (ng/mL) in the brain homogenates, and the homogenate values then were multiplied by a factor of 4 to obtain the brain concentrations (ng/g).

[16] = system: CA-46 cells; assay: MTS single-dosage cell viability assay; assay type: cell-based; settings: CA-46, 250 nM
Excerpt: (§2) Single-Dosage Cell Viability Assay in CA-46 and Raji Cells. CA-46 and Raji are both Myc-dependent and -overexpressing non-Hodgkin's lymphoma cell lines. Both cell lines overexpress Myc due to a translocation that inserts an IgH enhancer upstream to the Myc gene. Whereas CA-46's translocation eliminates the G-quadruplex-forming region in one allele, Raji's translocation preserves the G-quadruplex-forming regions in both alleles. Therefore, Raji would be more sensitive to G-quadruplex-mediated Myc inhibition than CA-46, which may be reflected in lower IC50 values for Raji than CA-46. To evaluate cell line selectivity, MTS single-dosage assays were conducted to compare the antiproliferative effects of 7-aza-8,9-methylenedioxyindenoisoquinolines on CA-46 and Raji cells at 250 nM drug concentration (FIG. 8). Average % viability values of CA-46 and Raji cells for each drug were presented in bar plots side-by-side.
(§3) MTS Cell Viability Single-dosage Assay. Drug solutions for the MTS single dosage assays were made from DMSO stocks by dilutions in 1×PBS. To set up treatments, drug solutions were plated in triplicates to a 96-well tissue culture plate and added with media containing CA46 or Raji 2000 cells/well. […] Cells were quantified the same way as in the IC50 assays. To obtain %-viability, A490 values were subtracted by blank, normalized to 100%-viability control, and averaged. […]

[17] = system: Raji cells; assay: MTS single-dosage cell viability assay; assay type: cell-based; settings: 250 nM
Excerpt: as §2, §3

[18] = male, CD1, mouse, plasma, iv, 1 mg/kg

**Q.** What does the source list for `COc1cc2c3c(n(CCCNCCO)c(=O)c2cc1OC)-c1cc2c(cc1C3=O)OCO2` [LMP744]?
**A.** mean tumor concentration relative to plasma concentration [1]: at least 100 times; GI50 [2]: < 10 nM; GI50 [3]: 790 nM; GI50 [4]: 100 nM; GI50 [5]: 40 nM; GI50 [6]: 110 nM; GI50 [7]: 30 nM; GI50 [8]: < 10 nM

**Q.** With `COc1cc2c3c(n(CCCNCCO)c(=O)c2cc1OC)-c1nc2c(cc1C3=O)OCO2` [G105, 6-(3-((2-Hydroxyethyl)amino)propyl)-2,3-dimethoxy-5H-[1,3]dioxolo[4″,5″:5′,6′]pyrido[3′,2′:4,5]cyclopenta[1,2-c]isoquinoline-5,12(6H)-dione] as the compound, how does the “average animal weight relative to initial body weight” value [9] read?
**A.** 80.9±1.1%

**Q.** What about the “potency on tumor size” value [10] of the same compound?
**A.** most potent

**Q.** What about the “Scaled-up CLint” value [11] of the same compound?
**A.** 14.10 mL/min/kg

**Q.** What about the T1/2 [11] of the same compound?
**A.** 7.1658 h

**Q.** And the “in vitro CLint” value [11]?
**A.** 3.22 μL/min/mg protein

**Q.** What about the “toxicity estimated from decrease in animal weight” value ([12]; 20 mg/kg IV) of the same compound?
**A.** most toxic

**Q.** And the “reduction of tumor volume” value ([12]; IV days 1-5 and 11-15, G105 20 mg/kg, G104 15 and 30 mg/kg)?
**A.** most potent

**Q.** What about the “% Stability at 6 hrs” value [13] of the same compound?
**A.** 97.59%

**Q.** And the AUCInf ([14]; IV 1 mg/kg, male CD1 mice)?
**A.** 155 ng·h/mL

**Q.** And the AUClast ([14]; IV 1 mg/kg, male CD1 mice)?
**A.** 151 ng·h/mL

**Q.** And the AUClast/D ([14]; IV 1 mg/kg, male CD1 mice)?
**A.** 151 ng·h/mL

**Q.** What about the “AUC—% Extrap—obs” value ([14]; IV 1 mg/kg, male CD1 mice) of the same compound?
**A.** 2.61%

**Q.** And the C0 ([14]; IV 1 mg/kg, male CD1 mice)?
**A.** 177 ng/mL

**Q.** What about the Cl_obs ([14]; IV 1 mg/kg, male CD1 mice) of the same compound?
**A.** 107 mL/min/kg

**Q.** And the “MRTInf—obs” value ([14]; IV 1 mg/kg, male CD1 mice)?
**A.** 1.49 h

**Q.** What about the T1/2 ([14]; IV 1 mg/kg, male CD1 mice) of the same compound?
**A.** 1.84 h

**Q.** What about the AUCInf ([14]; PO 10 mg/kg, male CD1 mice) of the same compound?
**A.** 28.8 ng·h/mL

**Q.** What about the AUClast ([14]; PO 10 mg/kg, male CD1 mice) of the same compound?
**A.** 18.0 ng·h/mL

**Q.** What about the AUClast/D ([14]; PO 10 mg/kg, male CD1 mice) of the same compound?
**A.** 1.80 ng·h/mL

**Q.** What about the “AUC—% Extrap—obs” value ([14]; PO 10 mg/kg, male CD1 mice) of the same compound?
**A.** 37.3%

**Q.** And the Cmax ([14]; PO 10 mg/kg, male CD1 mice)?
**A.** 3.50 ng/mL

**Q.** And the “F (fraction of the dose absorbed)” value ([14]; PO 10 mg/kg, male CD1 mice)?
**A.** 1.19%

**Q.** And the “MRTInf—obs” value ([14]; PO 10 mg/kg, male CD1 mice)?
**A.** 7.86 h

**Q.** What about the T1/2 ([14]; PO 10 mg/kg, male CD1 mice) of the same compound?
**A.** 5.20 h

**Q.** What about the Tmax ([14]; PO 10 mg/kg, male CD1 mice) of the same compound?
**A.** 0.500 h

**Q.** What about the Vd [14, 18] of the same compound?
**A.** 9.62 L/kg

**Q.** What about the half-life [14, 18] of the same compound?
**A.** 1.84 h

**Q.** And the half-life ([14]; male, CD1, mouse, plasma, po, 10 mg/kg)?
**A.** 5.2 h

**Q.** What about the AUCInf ([15]; male, CD1, mouse) of the same compound?
**A.** 2949 ng·h/mL

**Q.** What about the AUClast ([15]; male, CD1, mouse) of the same compound?
**A.** 2847 ng·h/mL

**Q.** What about the C0 ([15]; male, CD1, mouse) of the same compound?
**A.** 3904 ng/mL

**Q.** And the Cl_obs ([15]; male, CD1, mouse)?
**A.** 113 mL/min/kg

**Q.** What about the “MRTInf—obs” value ([15]; male, CD1, mouse) of the same compound?
**A.** 4.12 h

**Q.** What about the T1/2 ([15]; male, CD1, mouse) of the same compound?
**A.** 6.18 h

**Q.** And the “Brain/Plasma Conc Ratio” value ([15]; male, CD1, mouse, 0.25 h)?
**A.** 0.42

**Q.** What about the “Brain/Plasma Conc Ratio” value ([15]; male, CD1, mouse, 0.5 h) of the same compound?
**A.** 0.44

**Q.** And the “Brain/Plasma Conc Ratio” value ([15]; male, CD1, mouse, 1 h)?
**A.** 0.73

**Q.** What about the “Brain/Plasma Conc Ratio” value ([15]; male, CD1, mouse, 2 h) of the same compound?
**A.** 1.45

**Q.** And the “Brain/Plasma Conc Ratio” value ([15]; male, CD1, mouse, 4 h)?
**A.** 2.71

**Q.** And the “Brain/Plasma Conc Ratio” value ([15]; male, CD1, mouse, 8 h)?
**A.** 10.2

**Q.** What about the AUClast ([15]; mouse) of the same compound?
**A.** 9698 ng·h/g

**Q.** For `COc1cc2c3c(n(CCCN4CCOCC4)c(=O)c2cc1OC)-c1nc2c(cc1C3=O)OCO2` [G101, 2,3-Dimethoxy-6-(3-morpholinopropyl)-5H-[1,3]dioxolo[4″,5″:5′,6′]pyrido[3′,2′:4,5]cyclopenta[1,2-c]isoquinoline-5,12(6H)-dione], which “growth inhibition (% viability)” value [16] is on record?
**A.** did not show growth inhibition

**Q.** And the “growth inhibition (% viability)” value [17]?
**A.** did not show growth inhibition
